The target of one series is Erk2 (Homo sapiens, UniProt P28482). The series is described as follows: Erk2 alpha kinase assay (cell-free, ALPHA technology). The series is classed as biochemical. The note with it: 10 μM ATP. On the procedure: The inhibitory effect of the compounds according to the invention was tested on various serine/threonine, tyrosine and lipid kinases in enzymatic assays. Recombinant human kinases such as, for example, Erk2, were used in this case, partly as full-length kinases, partly as shortened fragments, but at least consisting of the functional kinase domains. The commercial kinase proteins (Proqinase, Upstate) were used as recombinant fusion proteins with GST (glutathion-S-transferase) or His-Tag. Depending on the type of substrate, the various kinase reactions were quantified by means of suitable ALPHA™ beads (Perkin-Elmer). The substance testing is described in detail hereinafter for the Erk assay. […] a) MAPK-ALPHAs (e.g. […] The fluorescence was detected the following morning in a Envision plate reader (Perkin-Elmer). The %-inhibition values per substance concentration were calculated by means of the following formula from the raw data determined in the Envision plate reader[…]: Eight determinations were made for each control and two for the substance samples. […] The IC50 values were determined using GraphPadPrism.
Chain of Erk2 (P28482 2-360 limits assumed): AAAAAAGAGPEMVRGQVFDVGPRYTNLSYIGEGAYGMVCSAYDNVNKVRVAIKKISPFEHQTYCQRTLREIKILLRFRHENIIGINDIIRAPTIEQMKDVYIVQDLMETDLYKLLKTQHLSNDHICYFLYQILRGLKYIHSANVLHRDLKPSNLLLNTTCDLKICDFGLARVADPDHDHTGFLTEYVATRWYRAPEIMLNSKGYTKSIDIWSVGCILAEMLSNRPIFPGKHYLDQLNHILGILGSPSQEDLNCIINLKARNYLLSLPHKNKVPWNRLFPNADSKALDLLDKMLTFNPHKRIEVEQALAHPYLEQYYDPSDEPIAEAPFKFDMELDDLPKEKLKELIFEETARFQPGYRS

Another series has as its system Hct116. The series is described as follows: XTT assay for anti-proliferative effect. The series is classed as cell-based. The note with it: Homo sapiens, HCT-116; Hct116 tumour cell line, ~48 h incubation. On the procedure: The principle of this test is based on the intracellular reduction of the tetrazolium dye XTT (sodium 3′-[1-(phenylaminocarbonyl)-3,4-tetrazolium]-bis(4-methoxy-6-nitro)benzene sulfonic acid, Sigma) to a formazan dye by mitochondrial dehydrogenases. The dye is only formed by metabolically active cells and its photometrically measurable intensity is a quantitative indicator for the presence of living cells. The reduction of dye formation by incubation of the cells with substances serves as a parameter for the anti-proliferative effect.
The tumour cell lines (ATCC) were injected into 96-well microtitre plates in a defined cell number (1250 cells/well for Hct116) and then incubated overnight in an incubator at 37° C., 5% CO2 and 95% air humidity. The test substances were prepared as stock solutions (10 mM) in DMSO. To determine the EC50 values the potential inhibitor substances were added to the cells in half-logarithmically graded dilutions, resulting in final concentrations of 1.58 nM-50 μM. The cell plates were then incubated for ˜48 h in an incubator at 37° C., 5% CO2 and 95% air humidity.
For the detection reaction the substrate XTT was mixed with PMS (N-Methyl dibenzopyrazine methylsulfate, Sigma) and added to the cells so that a final concentration of 325 μg XTT/ml and 2.5 μg PMS/ml was obtained. It was then incubated for 3 h at 37° C., 95% air humidity. The formazan salt formed by the cellular dehydrogenases could then be quantified by adsorption at 490 nm.
The % inhibition value was evaluated by means of the following formula from the values for the optical densities measured in each case at 490 nm:
Eight determinations were made for each control and two for the substance samples. The 0% control contains no cells, the 100% control (proliferation control) contains no test substance. The EC50 values were determined using GraphPadPrism.

Here are results for 2 compounds from patent publication US8791118B2, “Pyridopyrazines as highly selective ras-Raf-Mek-Erk signal transduction pathway inhibitors” (Aeterna Zentaris GmbH, priority 2011, dated 2014).

One may read the IC50 as the concentration at which inhibition is half-maximal. A low value points to greater potency in that assay. For orientation: EC50 means the midpoint of the concentration-response curve. The melting point is the temperature, or range, at which the solid turns liquid. Regarding `CCCn1cc(-c2cnc3ccc(NC(=O)N[C@H](C)CCCc4ccccc4)nc3n2)cn1` [Compound 170, 1-((R)-1-Methyl-4-phenyl-butyl)-3-[3-(1-propyl-1H-pyrazol-4-yl)-pyrido[2,3-b]pyrazin-6-yl]-urea], the melting point is 185 to 188 °C. For the same compound, on Erk2, half-maximal inhibition (IC50) was put at 4 nM. The compound also displayed an EC50 in the series with Hct116 of 149 nM.
The compound `O=C(NCCCCc1ccccc1)Nc1ccc2ncc(-c3ccc(OCCOCCO)cc3)nc2n1` [Compound 201, 1-(3-{4-[2-(2-Hydroxy-ethoxy)-ethoxy]-phenyl}-pyrido[2,3-b]pyrazin-6-yl)-3-(4-phenyl-butyl)-urea] showed a melting point of 192 to 194 °C. Besides, the IC50 at Erk2 worked out at 39 nM. The compound also displayed an EC50 with Hct116 of 888 nM.
